# Laboratory results published in patent US11414384B2, “P300/CBP hat inhibitors” (Constellation Pharmaceuticals, Inc., priority 2018, dated 2022).
# pIC50: −log10 of the molar value.
# Target: p300 HAT domain (residues 1287-1666) (Homo sapiens (Human), UniProt Q09472)
# Test: p300 HAT SPA assay (scintillation proximity assay, acetylation of biotinylated H3(1-21) peptide)
# Assay type: biochemical
# Details: p300 HAT domain; average of at least 2 replicate titrations; read-out: P300 HAT SPA IC50
# Experimental: In a typical experiment the p300 HAT inhibitory activity of the compounds described herein was determined in accordance with the following experimental method.
# The expressed protein was purified by Ni2+ affinity, followed by anion exchange chromatography. Appropriate fractions were pooled and buffer exchanged into 20 mM Hepes pH 7.5, 150 mM NaCl, and 1 mM TCEP.
# 35 μL of the reaction volume was transferred to a 384-well streptavidin FlashPlate (PerkinElmer) using a Bravo liquid handler (Velocity 11) and incubated for 1.5 hr at RT. […] Data were analyzed in Genedata to determine inhibitor IC50 values.
# Sequence of p300 HAT domain (residues 1287-1666) (Q09472 1287-1666): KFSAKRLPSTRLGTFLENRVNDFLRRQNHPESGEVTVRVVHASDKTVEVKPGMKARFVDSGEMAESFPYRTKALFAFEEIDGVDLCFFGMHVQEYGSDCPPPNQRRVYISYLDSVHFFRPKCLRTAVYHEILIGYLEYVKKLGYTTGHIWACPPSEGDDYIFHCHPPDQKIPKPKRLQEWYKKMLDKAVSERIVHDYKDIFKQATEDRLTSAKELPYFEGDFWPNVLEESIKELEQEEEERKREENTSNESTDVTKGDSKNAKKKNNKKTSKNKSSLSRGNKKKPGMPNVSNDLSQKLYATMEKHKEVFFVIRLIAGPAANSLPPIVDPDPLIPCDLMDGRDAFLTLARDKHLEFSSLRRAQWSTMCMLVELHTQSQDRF
row,SMILES,pIC50
1,"Cn1cc(-c2ccc3c(C(=O)C(NCCc4ccc(C(N)=O)cc4Cl)c4ccccc4)c[nH]c3c2)cn1 (racemic) [143 racemic, 3-chloro-4-(2-((2-(6-(1-methyl-1H-pyrazol-4-yl)-1H-indol-3-yl)-2-oxo-1-phenylethyl)amino)ethyl)benzamide]",6.58
2,"NS(=O)(=O)c1ccc(CCNC(C(=O)c2c[nH]c3cc(C(F)(F)F)ccc23)c2ccccc2)cc1 (single isomer, unassigned) [1 Isomer 1]",4.85
3,"O=C(c1c[nH]c2ccccc12)C(NCCc1ccccc1Cl)c1ccccc1 (single isomer, unassigned) [3 Isomer 1]",< 4.22
4,"O=C(c1c[nH]c2ccccc12)C(NCCc1cccc(Cl)c1)c1ccccc1 (single isomer, unassigned) [4 Isomer 1]",< 4.22
5,"O=C(c1c[nH]c2ccccc12)C(NCCc1cccc(Cl)c1)c1ccccc1 (single isomer, unassigned) [4 Isomer 2]",5.36
6,"O=C(c1c[nH]c2ccccc12)C(NCCc1ccc(Cl)cc1)c1ccccc1 (single isomer, unassigned) [5 Isomer 1]",5.06
7,"O=C(c1c[nH]c2ccccc12)C(NCCc1ccc(Cl)cc1)c1ccccc1 (single isomer, unassigned) [5 Isomer 2]",6.06
8,"COc1cccc(CCNC(C(=O)c2c[nH]c3ccccc23)c2ccccc2)c1 (single isomer, unassigned) [7 Isomer 1]",5.13
9,"COc1ccc(CCNC(C(=O)c2c[nH]c3ccccc23)c2ccccc2)cc1 (single isomer, unassigned) [8 Isomer 1]",4.36
10,"NS(=O)(=O)c1ccc(CCNC(C(=O)c2c[nH]c3c(Cl)cccc23)c2ccccc2)cc1 (single isomer, unassigned) [15 Isomer 1]",< 4.22
11,"Cn1cc(C(=O)C(NCCc2ccc(S(N)(=O)=O)cc2)c2ccccc2)c2ccccc21 (single isomer, unassigned) [17 Isomer 2]",5.73
12,"O=C(c1c[nH]c2ccccc12)C(NCCN1CCOCC1)c1ccccc1 (single isomer, unassigned) [18 Isomer 1]",< 4.22
13,"O=C(c1c[nH]c2ccccc12)C(NCCN1CCOCC1)c1ccccc1 (single isomer, unassigned) [18 Isomer 2]",< 4.22
14,"O=C(c1c[nH]c2ccccc12)C(NCCc1ccc(Cl)cc1Cl)c1ccccc1 (single isomer, unassigned) [19 Isomer 1]",< 4.22
15,"O=C(c1c[nH]c2ccccc12)C(NCCc1ccc(Cl)c(Cl)c1)c1ccccc1 (single isomer, unassigned) [20 Isomer 2]",5.51
16,"CC(NCCc1ccc(Cl)cc1)C(=O)c1c[nH]c2ccccc12 (single isomer, unassigned) [23 Isomer 1]",< 4.22
17,"CC(NCCc1ccc(Cl)cc1)C(=O)c1c[nH]c2ccccc12 (single isomer, unassigned) [23 Isomer 2]",< 4.22
18,"O=C(c1c[nH]c2ccccc12)C(NCCc1ccc(Cl)cc1)C1CC1 (single isomer, unassigned) [24 Isomer 1]",4.28
19,"O=C(c1c[nH]c2ccccc12)C(NCCc1ccc(Cl)cc1)C1CC1 (single isomer, unassigned) [24 Isomer 2]",< 4.22
20,"O=C(c1c[nH]c2ccccc12)C(NCCc1ccc(Cl)cc1)C1CCCC1 (single isomer, unassigned) [25 Isomer 2]",< 4.22

row,SMILES,pIC50
1,"CC(Cc1ccc(Cl)cc1)NC(C(=O)c1c[nH]c2ccccc12)c1ccccc1 (single isomer, unassigned) [27 Isomer 2]",< 4.22
2,"CC(Cc1ccc(Cl)cc1)NC(C(=O)c1c[nH]c2ccccc12)c1ccccc1 (single isomer, unassigned) [27 Isomer 3]",< 4.22
3,"CC(Cc1ccc(Cl)cc1)NC(C(=O)c1c[nH]c2ccccc12)c1ccccc1 (single isomer, unassigned) [27 Isomer 4]",< 4.22
4,"O=C(c1c[nH]c2ccccc12)C(NCCc1cn[nH]c1)c1ccccc1 (single isomer, unassigned) [34 Isomer 1]",< 4.22
5,"O=C(c1c[nH]c2ccccc12)C(NCCc1cn[nH]c1)c1ccccc1 (single isomer, unassigned) [34 Isomer 2]",4.61
6,"Cn1cc(CCNC(C(=O)c2c[nH]c3ccccc23)c2ccccc2)cn1 (single isomer, unassigned) [35 Isomer 2]",4.36
7,"O=C(c1c[nH]c2ccccc12)C(NCCn1ccnc1)c1ccccc1 (single isomer, unassigned) [36 Isomer 1]",< 4.22
8,"O=C(c1c[nH]c2ccccc12)C(NCCn1cnc2ccccc21)c1ccccc1 (single isomer, unassigned) [37 Isomer 1]",< 4.22
9,"O=C(c1c[nH]c2ccccc12)C(NCCn1cnc2ccccc21)c1ccccc1 (single isomer, unassigned) [37 Isomer 2]",< 4.22
10,"CN(C)c1ccc(CCNC(C(=O)c2c[nH]c3ccccc23)c2ccccc2)cc1 (single isomer, unassigned) [39 Isomer 1]",< 4.22
11,"O=C(c1c[nH]c2ccccc12)C(NCCN1CCCCC1=O)c1ccccc1 (single isomer, unassigned) [41 Isomer 1]",< 4.22
12,"CN(C)C(=O)CCc1ccc2c(C(=O)C(NCCc3ccc(F)cc3)c3ccccc3)c[nH]c2c1 (single isomer, unassigned) [49 Isomer 1]",< 4.52
13,"NS(=O)(=O)c1ccc(CCNC(C(=O)c2c[nH]c3c(C(F)(F)F)cccc23)c2ccccc2)cc1 (single isomer, unassigned) [50 Isomer 1]",5.16
14,"NS(=O)(=O)c1ccc(CCNC(C(=O)c2c[nH]c3c(C(F)(F)F)cccc23)c2ccccc2)cc1 (single isomer, unassigned) [50 Isomer 2]",< 4.52
15,"COc1ccc2c(C(=O)C(NCCc3ccc(S(N)(=O)=O)cc3)c3ccccc3)c[nH]c2c1 (single isomer, unassigned) [51 Isomer 1]",< 4.52
16,"O=C(c1c[nH]c2ccccc12)C(NCCc1ccc(Cl)nc1)c1ccccc1 (single isomer, unassigned) [52 Isomer 2]",5.55
17,"CCNc1ccc(CCNC(C(=O)c2c[nH]c3ccccc23)c2ccccc2)cn1 (single isomer, unassigned) [53 Isomer 1]",< 4.52
18,"COCCNc1ccc(CCNC(C(=O)c2c[nH]c3ccccc23)c2ccccc2)cn1 (single isomer, unassigned) [54 Isomer 1]",< 4.52
19,"NS(=O)(=O)c1ccc(CCNC(C(=O)c2c[nH]c3c(Cl)c(Cl)ccc23)c2ccccc2)cc1 (single isomer, unassigned) [55 Isomer 1]",5.11
20,"NS(=O)(=O)c1ccc(CCNC(C(=O)c2c[nH]c3c(Cl)c(Cl)ccc23)c2ccccc2)cc1 (single isomer, unassigned) [55 Isomer 2]",< 4.52

# Further lines, results first:
row,pIC50,SMILES
1,< 4.52,"NS(=O)(=O)c1ccc(CCNC(C(=O)c2c[nH]c3cc(C(F)(F)F)ccc23)c2ccccc2)cc1 (single isomer, unassigned) [1 Isomer 2]"
2,5.19,"O=C(c1c[nH]c2ccccc12)C(NCCc1ccccc1Cl)c1ccccc1 (single isomer, unassigned) [3 Isomer 2]"
3,< 4.22,"COc1ccccc1CCNC(C(=O)c1c[nH]c2ccccc12)c1ccccc1 (single isomer, unassigned) [6 Isomer 1]"
4,4.31,"Cc1[nH]c2ccccc2c1C(=O)C(NCCc1ccc(S(N)(=O)=O)cc1)c1ccccc1 (single isomer, unassigned) [16 Isomer 1]"
5,5.10,"Cn1cc(C(=O)C(NCCc2ccc(S(N)(=O)=O)cc2)c2ccccc2)c2ccccc21 (single isomer, unassigned) [17 Isomer 1]"
6,< 4.22,"O=C(c1c[nH]c2ccccc12)C(NCCc1ccc(Cl)c(Cl)c1)c1ccccc1 (single isomer, unassigned) [20 Isomer 1]"
7,4.48,"O=C(c1c[nH]c2ccccc12)C(NCCc1ccc(C(F)(F)F)cc1)c1ccccc1 (single isomer, unassigned) [21 Isomer 2]"
8,< 4.22,"O=C(c1c[nH]c2ccccc12)C(NCCc1ccc(F)cc1)c1ccccc1 (single isomer, unassigned) [22 Isomer 1]"
9,< 4.22,"O=C(c1c[nH]c2ccccc12)C(NCCc1ccc(Cl)cc1)C1CCCC1 (single isomer, unassigned) [25 Isomer 1]"
10,5.12,"COc1ccc(CCNC(C(=O)c2c[nH]c3c(Cl)cccc23)c2ccccc2)cc1 (single isomer, unassigned) [28 Isomer 1]"
11,5.86,"COc1ccc(CCNC(C(=O)c2c[nH]c3c(Cl)cccc23)c2ccccc2)cc1 (single isomer, unassigned) [28 Isomer 2]"
12,4.40,"Cn1cc(CCNC(C(=O)c2c[nH]c3ccccc23)c2ccccc2)cn1 (single isomer, unassigned) [35 Isomer 1]"
13,< 4.22,"O=C(c1c[nH]c2ccccc12)C(NCCn1ccnc1)c1ccccc1 (single isomer, unassigned) [36 Isomer 2]"
14,4.72,"Cc1ccc(CCNC(C(=O)c2c[nH]c3ccccc23)c2ccccc2)cc1 (single isomer, unassigned) [38 Isomer 1]"
15,< 4.22,"O=C(c1c[nH]c2ccccc12)C(NCCc1ccc(OC(F)(F)F)cc1)c1ccccc1 (single isomer, unassigned) [40 Isomer 1]"
16,< 4.22,"O=C(c1c[nH]c2ccccc12)C(NCCN1CCCCC1=O)c1ccccc1 (single isomer, unassigned) [41 Isomer 2]"
17,< 4.22,"Cc1ccc2c(C(=O)C(NCCc3ccc(F)cc3)c3ccccc3)c[nH]c2c1 (single isomer, unassigned) [48 Isomer 1]"
18,4.82,"O=C(c1c[nH]c2ccccc12)C(NCCc1ccc(Cl)nc1)c1ccccc1 (single isomer, unassigned) [52 Isomer 1]"
19,4.80,"COCCNc1ccc(CCNC(C(=O)c2c[nH]c3ccccc23)c2ccccc2)cn1 (single isomer, unassigned) [54 Isomer 2]"
